Conditions: for mass density: Vibrating tube method

FC(F)=C(F)C(F)(F)F [hexafluoropropene]
Conditions	mass density [kg/m3]	vapor or sublimation pressure [kPa]
343.18 K, 7163.7 kPa, Liquid	1166.5	–
343.18 K, 7207.1 kPa, Liquid	1167.25	–
343.18 K, 7249.5 kPa, Liquid	1168.08	–
343.18 K, 7293.3 kPa, Liquid	1168.78	–
343.18 K, 7354.7 kPa, Liquid	1169.81	–
343.18 K, 7477.5 kPa, Liquid	1171.63	–
343.18 K, 7539.3 kPa, Liquid	1172.69	–
343.18 K, 7580 kPa, Liquid	1173.37	–
343.18 K, 7621.6 kPa, Liquid	1174.18	–
343.18 K, 7663.4 kPa, Liquid	1174.54	–
343.18 K, 7709.7 kPa, Liquid	1175.39	–
343.18 K, 7753.6 kPa, Liquid	1176.17	–
343.18 K, 7797.5 kPa, Liquid	1176.76	–
343.18 K, 7837.6 kPa, Liquid	1177.31	–
343.18 K, 7898.4 kPa, Liquid	1178.24	–
343.18 K, 7941.1 kPa, Liquid	1178.97	–
343.18 K, 7984.5 kPa, Liquid	1179.58	–
343.18 K, 8043.1 kPa, Liquid	1180.22	–
343.18 K, 8085.6 kPa, Liquid	1180.85	–
343.18 K, 8131.1 kPa, Liquid	1181.65	–
343.18 K, 8209.9 kPa, Liquid	1183.02	–
343.18 K, 8291.5 kPa, Liquid	1184.04	–
343.18 K, 8335.5 kPa, Liquid	1184.74	–
343.18 K, 8378 kPa, Liquid	1185.42	–
343.18 K, 8419.6 kPa, Liquid	1185.91	–
343.18 K, 8464.8 kPa, Liquid	1186.51	–
343.18 K, 8525.6 kPa, Liquid	1187.33	–
343.18 K, 8587 kPa, Liquid	1188.25	–
343.18 K, 8628.5 kPa, Liquid	1188.86	–
343.18 K, 8670.7 kPa, Liquid	1189.47	–
343.18 K, 8714.6 kPa, Liquid	1189.91	–
343.18 K, 8776.2 kPa, Liquid	1190.93	–
343.18 K, 8818.3 kPa, Liquid	1191.58	–
343.18 K, 8881.2 kPa, Liquid	1192.4	–
343.18 K, 8941.7 kPa, Liquid	1193.53	–
343.18 K, 9000.5 kPa, Liquid	1194.02	–
343.18 K, 9064 kPa, Liquid	1194.66	–
343.18 K, 9123.4 kPa, Liquid	1195.43	–
343.18 K, 9184.1 kPa, Liquid	1196.23	–
343.18 K, 9262 kPa, Liquid	1197.29	–
343.18 K, 9304.6 kPa, Liquid	1197.74	–
343.18 K, 9350.1 kPa, Liquid	1198.56	–
343.18 K, 9408.2 kPa, Liquid	1199.15	–
343.18 K, 9449.8 kPa, Liquid	1199.74	–
343.18 K, 9509.5 kPa, Liquid	1200.56	–
343.18 K, 9567.5 kPa, Liquid	1201.28	–
343.18 K, 9607.9 kPa, Liquid	1202.1	–
343.18 K, 9667.5 kPa, Liquid	1202.79	–
343.18 K, 9708 kPa, Liquid	1203.31	–
343.18 K, 9749.9 kPa, Liquid	1203.76	–
343.18 K, 9796.9 kPa, Liquid	1204.53	–
343.18 K, 9839 kPa, Liquid	1205.06	–
343.18 K, 9920.9 kPa, Liquid	1205.9	–
343.18 K, 9962.6 kPa, Liquid	1206.45	–
343.21 K, Liquid, Closed cell (Static) method	–	2243.8
343.26 K, 3.2 kPa, Fluid (supercritical or subcritical phases)	0.22	–
343.26 K, 5.9 kPa, Fluid (supercritical or subcritical phases)	0.35	–
343.26 K, 8.6 kPa, Fluid (supercritical or subcritical phases)	0.55	–
343.26 K, 10.3 kPa, Fluid (supercritical or subcritical phases)	0.63	–
343.26 K, 12.1 kPa, Fluid (supercritical or subcritical phases)	0.73	–
343.26 K, 14.8 kPa, Fluid (supercritical or subcritical phases)	0.81	–
343.26 K, 16.4 kPa, Fluid (supercritical or subcritical phases)	1	–
343.26 K, 19.5 kPa, Fluid (supercritical or subcritical phases)	1.07	–
343.26 K, 22.4 kPa, Fluid (supercritical or subcritical phases)	1.29	–
343.26 K, 24.3 kPa, Fluid (supercritical or subcritical phases)	1.34	–
343.26 K, 25.9 kPa, Fluid (supercritical or subcritical phases)	1.39	–
343.26 K, 29 kPa, Fluid (supercritical or subcritical phases)	1.68	–
343.26 K, 32 kPa, Fluid (supercritical or subcritical phases)	1.75	–
343.26 K, 33.6 kPa, Fluid (supercritical or subcritical phases)	1.83	–
343.26 K, 36.6 kPa, Fluid (supercritical or subcritical phases)	1.97	–
343.26 K, 38.2 kPa, Fluid (supercritical or subcritical phases)	2.07	–
343.26 K, 39.9 kPa, Fluid (supercritical or subcritical phases)	2.11	–
343.26 K, 43.2 kPa, Fluid (supercritical or subcritical phases)	2.31	–
343.26 K, 45.9 kPa, Fluid (supercritical or subcritical phases)	2.54	–
343.26 K, 50.6 kPa, Fluid (supercritical or subcritical phases)	2.72	–
343.26 K, 55.4 kPa, Fluid (supercritical or subcritical phases)	3	–
343.26 K, 59.9 kPa, Fluid (supercritical or subcritical phases)	3.25	–
343.26 K, 63.1 kPa, Fluid (supercritical or subcritical phases)	3.46	–
343.26 K, 66.1 kPa, Fluid (supercritical or subcritical phases)	3.7	–
343.26 K, 70.8 kPa, Fluid (supercritical or subcritical phases)	3.87	–
343.26 K, 72.4 kPa, Fluid (supercritical or subcritical phases)	3.95	–
343.26 K, 74.2 kPa, Fluid (supercritical or subcritical phases)	4.04	–
343.26 K, 77.2 kPa, Fluid (supercritical or subcritical phases)	4.21	–
343.26 K, 80.1 kPa, Fluid (supercritical or subcritical phases)	4.42	–
343.26 K, 81.8 kPa, Fluid (supercritical or subcritical phases)	4.49	–
343.26 K, 83.4 kPa, Fluid (supercritical or subcritical phases)	4.54	–
343.26 K, 86.6 kPa, Fluid (supercritical or subcritical phases)	4.74	–
343.26 K, 89.9 kPa, Fluid (supercritical or subcritical phases)	4.91	–
343.26 K, 94.8 kPa, Fluid (supercritical or subcritical phases)	5.2	–
343.26 K, 97.7 kPa, Fluid (supercritical or subcritical phases)	5.42	–
343.26 K, 104 kPa, Fluid (supercritical or subcritical phases)	5.73	–
343.26 K, 110.1 kPa, Fluid (supercritical or subcritical phases)	6.1	–
343.26 K, 116.3 kPa, Fluid (supercritical or subcritical phases)	6.4	–
343.26 K, 122.7 kPa, Fluid (supercritical or subcritical phases)	6.8	–
343.26 K, 129.3 kPa, Fluid (supercritical or subcritical phases)	7.14	–
343.26 K, 135.5 kPa, Fluid (supercritical or subcritical phases)	7.51	–
343.26 K, 141.7 kPa, Fluid (supercritical or subcritical phases)	7.92	–
343.26 K, 148.2 kPa, Fluid (supercritical or subcritical phases)	8.27	–
343.26 K, 154.4 kPa, Fluid (supercritical or subcritical phases)	8.6	–
343.26 K, 160.9 kPa, Fluid (supercritical or subcritical phases)	8.89	–
343.26 K, 170.1 kPa, Fluid (supercritical or subcritical phases)	9.39	–
343.26 K, 176.8 kPa, Fluid (supercritical or subcritical phases)	9.8	–
343.26 K, 183.2 kPa, Fluid (supercritical or subcritical phases)	10.15	–
343.26 K, 189.6 kPa, Fluid (supercritical or subcritical phases)	10.49	–
343.26 K, 200.5 kPa, Fluid (supercritical or subcritical phases)	11.16	–
343.26 K, 213.3 kPa, Fluid (supercritical or subcritical phases)	11.94	–
343.26 K, 225.8 kPa, Fluid (supercritical or subcritical phases)	12.7	–
343.26 K, 237.9 kPa, Fluid (supercritical or subcritical phases)	13.34	–
343.26 K, 250.5 kPa, Fluid (supercritical or subcritical phases)	14.05	–
343.26 K, 262.7 kPa, Fluid (supercritical or subcritical phases)	14.74	–
343.26 K, 274 kPa, Fluid (supercritical or subcritical phases)	15.32	–
343.26 K, 286 kPa, Fluid (supercritical or subcritical phases)	16.09	–
343.26 K, 298.3 kPa, Fluid (supercritical or subcritical phases)	16.8	–
343.26 K, 311.2 kPa, Fluid (supercritical or subcritical phases)	17.55	–
343.26 K, 323.1 kPa, Fluid (supercritical or subcritical phases)	18.22	–
343.26 K, 335.5 kPa, Fluid (supercritical or subcritical phases)	18.98	–
343.26 K, 347.7 kPa, Fluid (supercritical or subcritical phases)	19.66	–
343.26 K, 360 kPa, Fluid (supercritical or subcritical phases)	20.46	–
343.26 K, 372.1 kPa, Fluid (supercritical or subcritical phases)	21.09	–
343.26 K, 384.1 kPa, Fluid (supercritical or subcritical phases)	21.84	–
343.26 K, 396.5 kPa, Fluid (supercritical or subcritical phases)	22.56	–
343.26 K, 408.2 kPa, Fluid (supercritical or subcritical phases)	23.28	–
343.26 K, 420.5 kPa, Fluid (supercritical or subcritical phases)	24.04	–
343.26 K, 431.3 kPa, Fluid (supercritical or subcritical phases)	24.66	–
343.26 K, 443.3 kPa, Fluid (supercritical or subcritical phases)	25.35	–
343.26 K, 455.1 kPa, Fluid (supercritical or subcritical phases)	26	–
343.26 K, 466.9 kPa, Fluid (supercritical or subcritical phases)	26.77	–
343.26 K, 478.8 kPa, Fluid (supercritical or subcritical phases)	27.49	–
343.26 K, 490.9 kPa, Fluid (supercritical or subcritical phases)	28.19	–
343.26 K, 507.3 kPa, Fluid (supercritical or subcritical phases)	29.18	–
343.26 K, 521.6 kPa, Fluid (supercritical or subcritical phases)	30.11	–
343.26 K, 535.5 kPa, Fluid (supercritical or subcritical phases)	30.9	–
343.26 K, 548.6 kPa, Fluid (supercritical or subcritical phases)	31.65	–
343.26 K, 561.3 kPa, Fluid (supercritical or subcritical phases)	32.53	–

Reference: the NIST ThermoML archive (doi:10.1021/je900596d)
